Source: PubChem BioAssay AID1259407 (Chemical Carcinogenesis Research Information System (CCRIS), 2018)
The source made the active and inactive calls. No rule for the calls is given here.

Tested on: CCRIS mutagenicity, Ames/micronucleus/aberration tests
Experiment: CCRIS mutagenicity studies
[1] = Test System: AMES SALMONELLA TYPHIMURIUM, Strain/Indicator: TA98, Metabolic Activation: RAT, LIVER, S-9, AROCLOR 1254, Method: STANDARD PLATE
[2] = Test System: AMES SALMONELLA TYPHIMURIUM, Strain/Indicator: TA100, Metabolic Activation: NONE, Method: STANDARD PLATE
[3] = Test System: AMES SALMONELLA TYPHIMURIUM, Strain/Indicator: TA98, Metabolic Activation: NONE, Method: STANDARD PLATE

## C1CC[C@H]2O[C@H]2C1
Test System: AMES SALMONELLA TYPHIMURIUM, Strain/Indicator: TA98, Metabolic Activation: HAMSTER, LIVER, S-9, AROCLOR 1254, Method: STANDARD PLATE
  mutagenic call: active; positive
Test System: AMES SALMONELLA TYPHIMURIUM, Strain/Indicator: TA98, Metabolic Activation: NONE, Method: PREINCUBATION
  mutagenic call: inactive; negative
Test System: AMES SALMONELLA TYPHIMURIUM, Strain/Indicator: TA98, Metabolic Activation: RAT LIVER S-9, PHENOBARBITAL AND BETA-NAPHTHOFLAVONE, Method: PREINCUBATION
  mutagenic call: inactive; negative
[1]
  mutagenic call: active; positive
Test System: AMES SALMONELLA TYPHIMURIUM, Strain/Indicator: TA100, Metabolic Activation: HAMSTER, LIVER, S-9, AROCLOR 1254, Method: STANDARD PLATE
  mutagenic call: active; positive
Test System: AMES SALMONELLA TYPHIMURIUM, Strain/Indicator: TA100, Metabolic Activation: NONE, Method: PREINCUBATION
  mutagenic call: active; positive
[2]
  mutagenic call: active; positive
Test System: AMES SALMONELLA TYPHIMURIUM, Strain/Indicator: TA100, Metabolic Activation: RAT LIVER S-9, PHENOBARBITAL AND BETA-NAPHTHOFLAVONE, Method: PREINCUBATION
  mutagenic call: active; positive
Test System: AMES SALMONELLA TYPHIMURIUM, Strain/Indicator: TA100, Metabolic Activation: RAT, LIVER, S-9, AROCLOR 1254, Method: STANDARD PLATE
  mutagenic call: active; positive
Test System: AMES SALMONELLA TYPHIMURIUM, Strain/Indicator: TA1535, Metabolic Activation: NONE, Method: PREINCUBATION
  mutagenic call: active; positive
Test System: AMES SALMONELLA TYPHIMURIUM, Strain/Indicator: TA1535, Metabolic Activation: NONE, Method: STANDARD PLATE
  mutagenic call: active; positive
Test System: AMES SALMONELLA TYPHIMURIUM, Strain/Indicator: TA1535, Metabolic Activation: RAT LIVER S-9, PHENOBARBITAL AND BETA-NAPHTHOFLAVONE, Method: PREINCUBATION
  mutagenic call: active; positive
Test System: AMES SALMONELLA TYPHIMURIUM, Strain/Indicator: TA1537, Metabolic Activation: NONE, Method: PREINCUBATION
  mutagenic call: inactive; negative
Test System: AMES SALMONELLA TYPHIMURIUM, Strain/Indicator: TA1537, Metabolic Activation: RAT LIVER S-9, PHENOBARBITAL AND BETA-NAPHTHOFLAVONE, Method: PREINCUBATION
  mutagenic call: inactive; negative
Test System: AMES SALMONELLA TYPHIMURIUM, Strain/Indicator: TA1538, Metabolic Activation: NONE, Method: PREINCUBATION
  mutagenic call: inactive; negative
Test System: AMES SALMONELLA TYPHIMURIUM, Strain/Indicator: TA1538, Metabolic Activation: RAT LIVER S-9, PHENOBARBITAL AND BETA-NAPHTHOFLAVONE, Method: PREINCUBATION
  mutagenic call: inactive; negative
Test System: E. COLI, Strain/Indicator: WP2UVRA, Metabolic Activation: NONE, Method: PREINCUBATION
  mutagenic call: inactive; negative
Test System: E. COLI, Strain/Indicator: WP2UVRA, Metabolic Activation: RAT LIVER S-9, PHENOBARBITAL AND BETA-NAPHTHOFLAVONE, Method: PREINCUBATION
  mutagenic call: active; positive
Test System: MOUSE LYMPHOMA, Strain/Indicator: L5178Y (TK+/TK-), Metabolic Activation: NONE, Method: SUSPENSION/PLATE
  mutagenic call: active; positive. reevaluation of results: positive
Test System: Mouse lymphoma, Strain/Indicator: L5178Y (tk+/tk-), Metabolic Activation: Rat, Liver, S-9, Aroclor 1254, Method: Suspension/plate
  mutagenic call: active; positive

## CNC(=O)N(C)C(=O)ON
[3]
  mutagenic call: active; positive
[2]
  mutagenic call: active; positive

## O=C(ON(OCc1ccccc1)C(=O)c1ccccc1)c1ccc(Cl)cc1
[2]
  mutagenic call: active; positive
Test System: AMES SALMONELLA TYPHIMURIUM, Strain/Indicator: TA100, Metabolic Activation: RAT, S-9, AROCLOR, Method: STANDARD PLATE
  mutagenic call: active; positive

## O=C1c2ccccc2-c2cc3ccccc3cc21
[3]
  mutagenic call: active; positive
[1]
  mutagenic call: active; positive

## CNc1ccc2nc3ccc(=[N+](C)C)cc-3sc2c1
Test System: Ames Salmonella typhimurium, Strain/Indicator: TA98, Metabolic Activation: None, Method: Preincubation
  mutagenic call: active; positive
Test System: Ames Salmonella typhimurium, Strain/Indicator: TA98, Metabolic Activation: Rat, Liver, S-9, Aroclor 1254 (10%), Method: Preincubation
  mutagenic call: active; positive
Test System: Ames Salmonella typhimurium, Strain/Indicator: TA100, Metabolic Activation: None, Method: Preincubation
  mutagenic call: active; positive
Test System: Ames Salmonella typhimurium, Strain/Indicator: TA100, Metabolic Activation: Rat, Liver, S-9, Aroclor 1254 (10%), Method: Preincubation
  mutagenic call: active; positive
Test System: E. coli, Strain/Indicator: WPM uvrA/pKM101, Metabolic Activation: None, Method: Preincubation
  mutagenic call: active; positive
Test System: E. coli, Strain/Indicator: WPM uvrA/pKM101, Metabolic Activation: Rat, Liver, S-9, Aroclor 1254 (10%), Method: Preincubation
  mutagenic call: active; positive
